Test results published in EP1310250A1, “Use of the compound 2-methoxyphenyl-1-methyl-5P-methylbenzoyl-pyrrol-2-acetamido acetate for the production of an antiinflammatory drug with prevention of gastric hypersecretion and renal impairment” (MEDOSAN Ricerca S.r.l., priority 1997, dated 1999).

System: carrageenin-induced paw oedema
Assay: Determination of ID50, carrageenin-induced paw oedema
Assay type: in vivo, rat
Details: five times the oral ID50 for oedema inhibition, 2 h after carrageenin
Protocol: ID50, relative to the products under examination (considered in table 1), has been evaluated using the anti-inflammatory response to carrageenin-induced paw oedema (according to Wong et al, J Pharmacol Exp, 1973:1855; pages 127-138). The products, suspended in 1% CMC, were administered orally in a total volume of 5 ml/rat. 1 h later, 0.1 ml of 1% carrageenin sterile solution was injected into the hind subplantar aponeurosis. Volume of the paw was measured immediately prior to injection of the phlogogen and 2 h thereafter, by means of a plethysmograph. The percentage of inhibition of oedema was calculated as follows: 1 - ΔV treated/ΔV control x 100 [formula] where ΔV = final V - initial V.

In the case of `COc1ccccc1OC(=O)CNC(=O)Cc1ccc(C(=O)c2ccc(C)cc2)n1C` [amtolmetin guacyl, 2-methoxyphenyl-1-methyl-5p-methylbenzoylpyrrol-2-acetamido acetate], the “Ratio to rat dosage (mg/kg) (ID50 mg/kg x5)” value is reported as 100 mg/kg.
